Test results taken from US20250339391A1, “METHODS FOR EFFECTIVE MANAGEMENT OF PAIN” (South Rampart Pharma, Inc., priority 2024, published 2025).
Entries after “also recorded” stand apart in the source; their conditions may differ.

Tests used:
[1] = tested on: CD1 mice; conditions: for signs of hepatotoxicity: CD-1 mice; for animals dead in 48 hours: FIG. 1F experiment, data not shown
Protocol: After drug administration, animals were returned to their respective cages and maintained with food and water provided ad libitum for the next 12 h. Animals were then euthanized under 5% isoflurane anesthesia after 12 h, and whole blood samples were collected transcardially in sterile microcentrifuge tubes without anti-coagulants. Whole blood samples were stored at room temperature (25° C.) for 30 min, allowing them to coagulate, which was centrifuged at 1,000 g for 5 min at 4° C. to isolate serum samples from whole blood, which were collected, aliquoted, and stored at −80° C. for identification of NAPQI, and liver function tests (LFTs).
LFTs were done on fresh serum samples, and not on thawed frozen serum samples to avoid denaturing LFT transaminases due to freeze/thaw of frozen serum.
Employing a consistent lethal dose for both compounds streamline the experimental design and facilitates data interpretation. This approach aligns with FDA guidelines on Bioequivalence and Bioavailability studies for estimating the maximum safe starting dose in humans, a strategy further substantiated by others. At 12 h post-injection, mice were deeply anesthetized under 5% isoflurane for more than 5 min and formalin-fixed via transcardial perfusion with 10% Neutral Buffered Formalin (NBF) after exsanguination using 0.9% NaCl. Liver tissues were extracted and stored in NBF for 24 h post fixation, after which they were then transferred to 80% EtOH for storage prior to paraffin embedding, sectioning, and immunological staining. FFPE blocks were sectioned into 5 μm thick slices on regular frost-free plus slides and dried overnight on a slide warmer. After deparaffination, sections were stained with validated antibodies for nitrotyrosine and ZO-1 (tight junctions). […] Nitrotyrosine labeling was detected with 3′3′-Diaminobenzidine (DAB) staining, and nitrotyrosine labeled hepatic sections were imaged at 100× magnification in brightfield using a Nikon Eclipse TS100 microscope with NIS-Elements BR 3.0 software (NIKON Inc, Melville, NY, USA). Slides with ZO-1 staining were imaged in z-stacks obtained at 20× magnification using Olympus FV-1200 confocal microscope with Fluoview software FV10-ASW Version 04.02.02.09 (Olympus Corp Center Valley, PA, USA). Quantification of ZO-1 staining hepatic tight junctions was carried out by unbiassed image analysis calculating area sum of pixel^2 of the green channel staining ZO-lusing CellSens software (Olympus Corp Center Valley, PA, USA).

[2] = tested on: midbrain periaqueductal gray (PAG) cells; assay: Single-cell RNA sequencing of midbrain PAG in CFA-induced chronic inflammatory pain model; assay type: in vivo, rat; conditions: CFA rats; for expression of FAAH, CORO2A and RPL7L1 (scRNAseq): 100 mg/kg, 1 h
Protocol: Subsequently, we endeavored to explore the single-cell transcriptome of the eVF rat mid-brain PAG region to further define the mechanisms of action (MOA) of chronic inflammatory pain and, ultimately, SRP-001- and ApAP-mediated pain modulation. Left hind paws of Sprague Dawley rats were injected with 150 μl of 50% complete Freund's adjuvant (CFA), freshly diluted with sterile saline on the day of administration, to induce conspicuous long-standing inflammatory pain in the rats' hind paws, along with mechanical hyperalgesia tested using eVF. […].
Single-cell (scRNA) RNA sequencing. For cell nuclei isolation from the midbrain PAG, they were flash-frozen, dissected (by a cryotome), minced into small pieces, homogenized, filtered through 70 strainer and centrifuged. ReadiDrop 7-AAD cell viability dye (Bio-Rad) added, and flow sorted the live ([…]) nuclei in a BioRad Cell Sorter S3e using purity mode. Nuclei were counted using Nexcelom automated Cellometer with acridine orange/propidium iodide (AOPI) stain, and the Nuclei Stock Concentration used so that 10,000 nuclei could be targeted for each sample. […] Post library construction QC was performed using Agilent Bioanalyzer 2100 on High Sensitivity DNA chips, and after verification of sample traces, each library normalized based on the average fragment size, and the concentration determined using Qubit 4.0 fluorometer (Thermo Fisher Scientific). […]
Data processing. […] Read alignment, filtering, barcode counting, peak calling, and counting of both ATAC and GEX molecules were performed using cellranger-arc count. […] Only confidently mapped reads with valid barcodes, unique molecular identifiers (UMIs), and non-PCR duplicated were retained. The overall sequencing quality was evaluated by looking at the summary metrics of the web_summary.html file generated for each sample. […]

Structure (SMILES)	hepatic tight junctions by ZO-1 staining ([1]; CD1 mice, 600 mg/kg PO, 12 h, 600 mg/kg)	signs of hepatotoxicity ([1]; 600 mg/kg)	animals dead in 48 hours [1]	expression of FAAH, CORO2A and RPL7L1 (scRNAseq) [2]	centrilobular necrosis / nitrotyrosine staining of liver sections ([1]; CD1 mice, 600 mg/kg PO, 12 h)	liver transaminases ALT and AST ([1]; CD1 mice, 600 mg/kg, serum)	TUNEL-positive apoptotic nuclei in liver sections ([1]; mouse, in vivo, 600 mg/kg)	regulation of FAAH signaling genes ([2]; IPA analysis)
CC(=O)Nc1ccc(O)cc1 [ApAP, acetaminophen]	significant reduction in ZO-1-stained tight junctions; also recorded: marked decrease in ZO-1	hepatotoxicity is evident	75%	Downregulation	–	–	–	–
CCN(CC)C(=O)c1ccccc1S(=O)(=O)NCC(=O)Nc1ccc(O)cc1 [SRP-001, N,N-diethyl-2-[[2-(4-hydroxyanilino)-2-oxo-ethyl]sulfamoyl]benzamide]	–	no signs of hepatotoxicity	none	Downregulation	lack nitrotyrosine staining	not observed	almost no TUNEL signal	more significantly regulated by SRP-001 than ApAP
